# In patent publication US12186304B2, “Method for treating cancer by combination of IAP inhibitor and modulator of immune checkpoint molecule” (ASCENTAGE PHARMA (SUZHOU) CO., LTD., priority 2018, dated 2025):
# Experiments:
# spleen cells = assay: Activation of spleen cells of healthy C57BL/6 mice in vivo; settings: 0.05, 0.2 and 0.8 mg/kg i.p. qd x 7 doses
# Protocol: Next, we intraperitoneally administered different dosages of APG-1387 to healthy C57BL/6 mice every day. Each group has 3 mice. After 7 days of continuous administration, the spleen was taken to obtain a single cell suspension. NK, macrophage, dendritic cells and T cells were analyzed by flow cytometry to obtain the proportion of these subsets, thus evaluate the effect of APG-1387 on each immune cell subpopulation.
# [1] = tested on: advanced or metastatic solid tumor; assay: Phase I study: anti-tumor activity in all tumor types; type: in vivo, human
# CT26 colorectal cancer = assay: Combination therapy in CT26 mouse colorectal cancer model; type: in vivo; settings: APG-1387 0.2 mg/kg i.v. once daily, docetaxel 8 mg/kg i.p. once weekly, anti-PD-1 200 μg/mouse i.p. twice weekly
# Protocol: (§1) Cell inoculation method was used to establish a […] tumor-immunized normal mouse subcutaneous homograft tumor model: tumor cells in logarithmic growth phase were collected, counted, and then resuspended in 1×PBS. The concentration of the cell suspension was adjusted to 2.5-5×10^7/mL. Tumor cells, 5-10×10^6/0.2 mL/mouse, were inoculated subcutaneously in the right back of the immunized normal mouse with a 1 mL syringe ([…]). All animal experimental operations were strictly in accordance with standards for use and management of laboratory animals by Gima Gene Co., Ltd and Suzhou Yasheng Pharmaceutical Co., Ltd. Relevant parameters were calculated with reference to China's NMPA “Guidelines for Non-clinical Research Techniques of Cytotoxic Antitumor Drugs”.
# Animal weight and tumor size were measured twice a week during the experiment. Animals were observed daily for status and the occurrence of death. Routine monitoring included the effects of tumor growth and treatment on the normal behaviors of animals, specifically including the activity, feeding and drinking, weight gain or loss, eyes, clothing hair, as well as other abnormalities of the laboratory animals. The deaths and clinical symptoms observed during the experiment were recorded in the original data. The whole process of administration, measurement of mouse weight and tumor volume was carried out in an ultra-clean bench. According to requirements of the experimental program, plasma and tumor tissue were collected, weighed and photographed for record after the end of last administration. Plasma and tumor samples were frozen at −80° C. for later use.
# (§2) Tumor volume (TV) was calculated as TV=a×b^2/2, wherein a and b represented the length and width of tumor measurement, respectively.
# (§3) Relative tumor volume (RTV) was calculated as RTV=Vt/V1, wherein V1 was the tumor volume at the time of grouping administration, and Vt was the tumor volume measured on day t after administration.
# The evaluation index of anti-tumor activity was relative tumor proliferation rate T/C (%), and was calculated as: relative tumor proliferation rate T/C (%)=(TRTV/CRTV)×100%, wherein TRTV was RTV in treatment group, and CRTV was RTV in vehicle control group.
# Tumor remission rate (%) was the number of SD (stable disease), PR (partial regression) and CR (complete regression) in tumor-bearing mice after treatment divided by the total number of mice in that group×100%. CR refers to the complete regression of the tumor, which means the tumor is inaccessible after treatment. PR refers to the partial regression of the tumor, which means tumor volume becomes smaller than before treatment. SD refers to stable tumor progression, which means tumor volume is the same as before treatment. Change of body weight (%)=(measurement of body weight−body weight when grouping)/body weight when grouping×100%.
# Efficacy evaluation criteria: according to China's NMPA “Guidelines for Non-clinical Research Techniques of Cytotoxic Antitumor Drugs” (November 2006), T/C (%) value 40% and p<0.05 by statistical analysis were considered as efficacious. If the weight loss of mice exceeded 20%, or the drug-related death percentage exceeded 20%, the drug dose was considered to be severely toxic.
# According to Clarke R., Issues in experimental design and endpoint analysis in the study of experimental cytotoxic agents in vivo in breast cancer and other models [J].
# A tumor model of CT26 colorectal cancer mouse was established, and the combined anti-tumor effect of APG-1387 with anti-PD-1 antibody and docetaxel was evaluated on this model. The administration regimen was as follows:
# APG-1387 monotherapy group: 0.2 mg/kg, intravenous injection, once daily for a total of 17 days;
# Docetaxel monotherapy group: 8 mg/kg, intraperitoneal injection, once weekly for a total of 17 days;
# Anti-PD-1 antibody monotherapy group: 200 μg/mouse, intraperitoneal injection, twice weekly for a total of 2.5 weeks (i.e., 17 days); […]
# [2] = tested on: metastatic pancreatic cancer; assay: Phase I study: anti-tumor activity in pancreatic cancer; type: in vivo, human
# MC38 colon cancer = assay: Tumor growth in MC38 homologous mouse colon cancer model; type: in vivo
# Protocol: as §1, §2, §3
# The evaluation index of anti-tumor activity was relative tumor proliferation rate T/C (%), and was calculated as: relative tumor proliferation rate T/C (%)=(TRTV/CRTV)×100%, wherein TRTV was RTV in treatment group, and CRTV was RTV in vehicle control group. […]
# [3] = tested on: effector memory T cells and NK cells; assay: Lymphocyte analysis (flow cytometry) in MC38 tumor-bearing mice; type: in vivo, mouse; settings: MC38 model; APG-1387 0.2 mg/kg
# Protocol: In the experiment of tumor-infiltrated lymphocyte analysis, tissue samples such as spleen, draining lymph node, ascites, tumor or other tissues were collected 24 hours after the last drug administration. A single cell suspension of the spleen and draining lymph nodes was obtained, and the red blood cells were lysed after centrifugation, and the cells were filtered, followed by flow cytometric staining and flow cytometry. The tumor tissue was cut and centrifuged, and the tissue was digested, the cells were filtered. Ficoll was used to separate individual nuclei. Individual nuclei were collected for corresponding antibody flow staining and flow cytometry Ascites samples were collected and centrifuged, and the cells were filtered and subjected to flow cytometry staining and flow cytometry.
# The spleen, draining lymph nodes and tumor tissues of MC38 tumor-bearing mice were collected 24 hours after the last administration. Ascites of ID8-Luc tumor mice, tumor tissues of PLC/PRF/5 tumor mice were subjected to tumor infiltrating lymphocyte analysis. The proportion of lymphocytes in the APG-1387 treatment group and control group was analyzed to explore the potential mechanism of anti-tumor effect of APG-1387 combined with anti-PD-1 antibody.
# [4] = tested on: Murine MC38 colon cancer cells; assay: Subcutaneous xenograft model of murine MC38 colon cancer; type: in vivo, female C57BL/6 mice; settings: MC38 s.c.
# Protocol: • (1) APG-1387: provided by Jiangsu Ascentage Pharmaceutical Development Co., Ltd. The batch number is R12JA076140-A2 and PAPG-1387-DP-201305A. Preserved at 4° C., away from the light and sealed. APG-1387 was administered intravenously (i.v.) or intraperitoneally (i.p.) or at a dosage of 10 mL/kg. APG-1387 was dissolved in 5% castor oil/10% PEG400/85% normal saline. • (2) Anti-PD-1 antibody: purchased from BioXcell. The article number is BE0146 and BE0273. Preserved at 4° C. and sealed. The anti-PD-1 antibody was administered intraperitoneally at a concentration of 100 μg per mice or 200 μg per mice. • (3) Isotype control (anti-IgG): purchased from BioXcell, the product number is BE0089. […]
# The mice were injected subcutaneously with 0.5-10×10^6 cells or in the ovary with 6×10^6 cells in situ to build the tumor xenograft model. […] For the orthotopic model, tumor growth was measured by examining in vivo fluorescence images 10 days after inoculation. […] Body weight and tumor size were measured twice per week during the experiment. […]
# Using the fluorescence imaging technique, the strength of the fluorescent signal can represent the growth and metastasis of tumors in vivo.
# The tumor growth curve and the animal body weight curve were plotted, with time on the X-axis and tumor volume and animal body weight on the Y-axis. […] All data were analyzed using SPSS 18.0 (*P<0.05, **P<0.01, ***P<0.001, ****P<0.0001).
smiles,measurement,setting,value
CN[C@@H](C)C(=O)N[C@H]1CN(S(=O)(=O)c2cccc(S(=O)(=O)N3CC[C@H]4CC[C@@H](C(=O)NC(c5ccccc5)c5ccccc5)N4C(=O)[C@@H](NC(=O)[C@H](C)NC)C3)c2)CC[C@H]2CC[C@@H](C(=O)NC(c3ccccc3)c3ccccc3)N2C1=O [APG-1387],proportion of 9 types of immune cells in the spleen,spleen cells,no effect
same,"DCR (disease control rate, SD above)",[1],6/24
same,"ORR (objective response rate, CR + PR)",[1],0
same,Best response: CR,[1]; patients,0
same,Best response: PD,[1]; patients,15
same,Best response: PR,[1]; patients,0
same,Best response: SD,[1]; patients,6
same,T/C (%) value on day 18 after administration,CT26 colorectal cancer,105%
same,change of one mPC patient with confirmed SD,[2]; 45 mg,+6%
same,treatment duration of one mPC patient with confirmed SD,[2]; 45 mg,> 9 cycles
same,"DCR (disease control rate, SD above)",[2]; pancreatic cancer,4/10
same,"ORR (objective response rate, CR + PR)",[2]; pancreatic cancer,0
same,Best response: CR,"[2]; pancreatic cancer, patients",0
same,Best response: PD,"[2]; pancreatic cancer, patients",4
same,Best response: PR,"[2]; pancreatic cancer, patients",0
same,Best response: SD,"[2]; pancreatic cancer, patients",4
same,RTV on day 14 after administration,"MC38 colon cancer; APG-1387 0.2 mg/kg i.v., anti-PD-1 5 mg/kg i.p., twice weekly, 2 times",11.0 ± 1.2
same,T/C (%) value on day 14 after administration,MC38 colon cancer; day 14,70%
same,proportion of NK cells in the spleen and lymph nodes,[3],no significant effect
same,median survival time,[4],33.0 days
same,T/C value on the 22nd day after administration,"[4]; APG-1387 0.2 mg/kg i.v., anti-PD-1 100 μg/mouse i.p., q3d x 2 doses",69.6%
